Values after ≈ are worked out from the molar mass of the structure shown.
Assays:
Experiment in all cases: microbe, parasite or virus in culture
Assay type in all cases: cell-based
[1] = tested on: Francisella tularensis (FT; Gram-negative); conditions: read-out: MIC FT
[2] = tested on: Bacillus anthracis (BA; Gram-positive); conditions: read-out: MIC BA
[3] = tested on: Burkholderia pseudomallei (BP; Gram-negative); conditions: read-out: MIC BP
[4] = tested on: Burkholderia mallei (BM; Gram-negative); conditions: read-out: MIC BM
[5] = tested on: Yersinia pestis (YP; Gram-negative); conditions: read-out: MIC YP
[6] = tested on: Brucella abortus (BAB; Gram-negative); conditions: read-out: MIC BAB

SMILES	MIC [1]	MIC [2]	MIC [3]	MIC [4]	MIC [5]	MIC [6]
Clc1ccc2[nH]c3c(OCCCn4cncn4)c4[nH]c5ccc(Cl)cc5c4cc3c2c1	0.25 µg/mL (≈ 0.555 µM)	0.5 µg/mL (≈ 1.11 µM)	–	–	–	–
Clc1ccc2[nH]c3c(OCCCn4cnnc4)c4[nH]c5ccc(Cl)cc5c4cc3c2c1	0.5 µg/mL (≈ 1.11 µM)	0.25 µg/mL (≈ 0.555 µM)	–	–	–	–
Nc1nc(N)n(CCCOc2c3[nH]c4ccc(Cl)cc4c3cc3c2[nH]c2ccc(Cl)cc23)n1	1 µg/mL (≈ 2.08 µM)	0.5 to 1 µg/mL (≈ 1.04 to 2.08 µM)	> 8 µg/mL	> 8 µg/mL	8 µg/mL (≈ 16.7 µM)	1 µg/mL (≈ 2.08 µM)
Clc1ccc2[nH]c3c(OC4CCNC4)c4[nH]c5ccc(Cl)cc5c4cc3c2c1 (centres unmarked)	0.25 to 1 µg/mL (≈ 0.609 to 2.44 µM)	0.5 to 1 µg/mL (≈ 1.22 to 2.44 µM)	4 µg/mL (≈ 9.75 µM)	2 µg/mL (≈ 4.87 µM)	1 µg/mL (≈ 2.44 µM)	0.25 µg/mL (≈ 0.609 µM)
Clc1ccc2[nH]c3c(OCCCc4nnn[nH]4)c4[nH]c5ccc(Cl)cc5c4cc3c2c1	1 µg/mL (≈ 2.22 µM)	0.5 µg/mL (≈ 1.11 µM)	> 8 µg/mL	> 8 µg/mL	> 8 µg/mL	1 µg/mL (≈ 2.22 µM)
CN(C)C1CCN(CCOc2c3[nH]c4ccc(F)cc4c3cc3c2[nH]c2ccc(F)cc23)C1 (centres unmarked)	0.5 µg/mL (≈ 1.11 µM)	1 µg/mL (≈ 2.23 µM)	–	–	> 8 µg/mL	0.5 µg/mL (≈ 1.11 µM)
Nc1nnc(N)n1CCCOc1c2[nH]c3ccc(Cl)cc3c2cc2c1[nH]c1ccc(Cl)cc12	1 µg/mL (≈ 2.08 µM)	1 µg/mL (≈ 2.08 µM)	> 8 µg/mL	> 8 µg/mL	4 µg/mL (≈ 8.33 µM)	1 µg/mL (≈ 2.08 µM)
OC1CN(CCCOc2c3[nH]c4ccc(Cl)cc4c3cc3c2[nH]c2ccc(Cl)cc23)C1	0.5 µg/mL (≈ 1.1 µM)	0.5 µg/mL (≈ 1.1 µM)	–	–	4 µg/mL (≈ 8.8 µM)	1 µg/mL (≈ 2.2 µM)
OC1CCN(CCOc2c3[nH]c4ccc(F)cc4c3cc3c2[nH]c2ccc(F)cc23)CC1	0.5 µg/mL (≈ 1.15 µM)	0.5 µg/mL (≈ 1.15 µM)	> 8 µg/mL	8 µg/mL (≈ 18.4 µM)	4 µg/mL (≈ 9.19 µM)	1 µg/mL (≈ 2.3 µM)
CN(C)CCOc1c2[nH]c3cc(F)ccc3c2cc2c1[nH]c1cc(F)ccc12	0.5 µg/mL (≈ 1.32 µM)	1 µg/mL (≈ 2.64 µM)	> 8 µg/mL	> 8 µg/mL	> 8 µg/mL	0.5 µg/mL (≈ 1.32 µM)
CC(C)/N=C(/NCCCOc1c2[nH]c3ccc(F)cc3c2cc2c1[nH]c1ccc(F)cc12)NC(C)C	1 µg/mL (≈ 2.03 µM)	0.5 µg/mL (≈ 1.02 µM)	–	–	4 µg/mL (≈ 8.14 µM)	1 µg/mL (≈ 2.03 µM)
CC/N=C(/NCCCOc1c2[nH]c3ccc(Cl)cc3c2cc2c1[nH]c1ccc(Cl)cc12)NCCCN(C)C	1 µg/mL (≈ 1.81 µM)	≤ 0.25 µg/mL	4 µg/mL (≈ 7.23 µM)	4 µg/mL (≈ 7.23 µM)	1 µg/mL (≈ 1.81 µM)	1 µg/mL (≈ 1.81 µM)
Clc1ccc2[nH]c3c(OCCC4CCNCC4)c4[nH]c5ccc(Cl)cc5c4cc3c2c1	0.5 µg/mL (≈ 1.11 µM)	≤ 0.25 µg/mL	> 8 µg/mL	4 µg/mL (≈ 8.84 µM)	1 µg/mL (≈ 2.21 µM)	≤ 0.25 µg/mL
Fc1ccc2[nH]c3c(OC4CCNC4)c4[nH]c5ccc(F)cc5c4cc3c2c1 (centres unmarked)	0.5 µg/mL (≈ 1.32 µM)	≤ 0.25 µg/mL	4 µg/mL (≈ 10.6 µM)	2 µg/mL (≈ 5.3 µM)	1 µg/mL (≈ 2.65 µM)	≤ 0.25 µg/mL
Clc1ccc2[nH]c3c(OCCCNCc4c[nH]c5ccccc45)c4[nH]c5ccc(Cl)cc5c4cc3c2c1	1 µg/mL (≈ 1.9 µM)	1 µg/mL (≈ 1.9 µM)	> 8 µg/mL	> 8 µg/mL	2 µg/mL (≈ 3.79 µM)	0.5 µg/mL (≈ 0.948 µM)
Clc1ccc2[nH]c3c(OCCCNCc4ccc[nH]4)c4[nH]c5ccc(Cl)cc5c4cc3c2c1	0.5 µg/mL (≈ 1.05 µM)	0.5 µg/mL (≈ 1.05 µM)	> 8 µg/mL	> 8 µg/mL	2 µg/mL (≈ 4.19 µM)	0.5 µg/mL (≈ 1.05 µM)
Clc1ccc2[nH]c3c(OCCCNCc4ncc[nH]4)c4[nH]c5ccc(Cl)cc5c4cc3c2c1	1 µg/mL (≈ 2.09 µM)	1 µg/mL (≈ 2.09 µM)	> 8 µg/mL	> 8 µg/mL	2 µg/mL (≈ 4.18 µM)	0.5 µg/mL (≈ 1.05 µM)
Fc1ccc2[nH]c3c(OC[C@H]4CCCN4)c4[nH]c5ccc(F)cc5c4cc3c2c1	0.5 µg/mL (≈ 1.28 µM)	0.5 µg/mL (≈ 1.28 µM)	8 µg/mL (≈ 20.4 µM)	8 µg/mL (≈ 20.4 µM)	2 µg/mL (≈ 5.11 µM)	0.5 µg/mL (≈ 1.28 µM)
Fc1ccc2[nH]c3c(OC4CCCNC4)c4[nH]c5ccc(F)cc5c4cc3c2c1 (centres unmarked)	1 µg/mL (≈ 2.55 µM)	0.5 µg/mL (≈ 1.28 µM)	> 8 µg/mL	8 µg/mL (≈ 20.4 µM)	4 µg/mL (≈ 10.2 µM)	0.5 µg/mL (≈ 1.28 µM)
N[C@H]1CC[C@@H](Oc2c3[nH]c4ccc(F)cc4c3cc3c2[nH]c2ccc(F)cc23)CC1	1 µg/mL (≈ 2.47 µM)	0.5 µg/mL (≈ 1.23 µM)	> 8 µg/mL	> 8 µg/mL	4 µg/mL (≈ 9.87 µM)	0.5 µg/mL (≈ 1.23 µM)
Clc1ccc2[nH]c3c(OCCCNCc4cnc[nH]4)c4[nH]c5ccc(Cl)cc5c4cc3c2c1	1 µg/mL (≈ 2.09 µM)	0.5 µg/mL (≈ 1.05 µM)	–	–	4 µg/mL (≈ 8.36 µM)	0.5 µg/mL (≈ 1.05 µM)
NCCOc1c2[nH]c3ccc(F)cc3c2cc2c1[nH]c1ccc(F)cc12	2 µg/mL (≈ 5.69 µM)	4 µg/mL (≈ 11.4 µM)	16 µg/mL (≈ 45.5 µM)	8 µg/mL (≈ 22.8 µM)	4 µg/mL (≈ 11.4 µM)	1 µg/mL (≈ 2.85 µM)
Clc1ccc2[nH]c3c(O[C@@H]4CCNC4)c4[nH]c5ccc(Cl)cc5c4cc3c2c1	≤ 0.25 µg/mL	≤ 0.25 µg/mL	> 8 µg/mL	2 µg/mL (≈ 4.87 µM)	1 µg/mL (≈ 2.44 µM)	≤ 0.25 µg/mL
